The source of these data is article PMC8196714, “Design, Radiosynthesis and Preliminary Biological Evaluation in Mice of a Brain-Penetrant ^18F-Labelled σ2 Receptor Ligand” (International Journal of Molecular Sciences, 2021).

For one data set, the target named is T1, σ2 receptor (Rattus norvegicus, UniProt Q5U3Y7).
T1 sequence (Q5U3Y7 1-176): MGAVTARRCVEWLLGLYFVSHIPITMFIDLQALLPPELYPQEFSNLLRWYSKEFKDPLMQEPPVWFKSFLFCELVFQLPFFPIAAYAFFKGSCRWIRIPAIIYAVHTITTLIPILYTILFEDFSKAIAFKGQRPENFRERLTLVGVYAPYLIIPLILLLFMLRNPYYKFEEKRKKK
As to the kind of experiment: In vitro autoradiography on rat brain cryosections (healthy and orthotopic F98 glioblastoma). Type of data set: binding. More on the design: from tissue; host or cells: rat brain cryosections (SPRD healthy; Fisher F344 with orthotopic F98 glioblastoma). To be noted: for specific binding sites: at 1.5 nM [18F]RM273; for Kd: rat brain cryosections, n = 2. The source says:
(§1) Initially, we investigated the binding of [^18F]RM273 on rat brain slices by autoradiography to compare the distribution pattern with that of established σ2 receptor ligands and to examine the target specificity. The highest binding was found in the cortical areas and hippocampal structures. […] Accordingly, we proceeded to investigate, in a rat glioblastoma model, the potential suitability of [^18F]RM273 for molecular characterization of cancer. At first, homologous competition studies using membrane homogenates of the rat glioma cell line F98 were performed to determine the σ2 receptor binding parameters of [^18F]RM273 cells (Figure 3).
We subsequently investigated the binding parameters of [^18F]RM273 by in vitro autoradiography using cryosections of rat brains obtained three weeks after stereotactic implantation of F98 rat glioblastoma cells into the left striatum. Initially, we performed a homologous displacement study to directly compare the binding sites of the new radioligand in a healthy brain and a brain tumor. The inhibition curves presented in Figure 3 indicate binding of [^18F]RM273 to single binding sites in both brain regions. […] Further supporting the assumption of a tumor-specific overexpression of σ2 receptors, a remarkably high density of binding sites of [^18F]RM273 in the F98 tumor tissue was observed (Figure 4). Compared to the healthy tissue (contralateral side), about three times more specific binding sites of [^18F]RM273 were estimated for the tumor region (32 × 10^−9 mol/L vs. 94 × 10^−9 mol/L at 1.5 nM [^18F]RM273).
In vitro autoradiography was performed using cryosections of brains of a healthy rat (SPRD, female, 250 g; Medizinisch-Experimentelles Zentrum, Universität Leipzig, Leipzig, Germany) and brains obtained from rats (Fisher F344/HanZtmRj, male, ≈260 g; Janvier Labs, Le Genest-Saint-Isle, France) 23 days after stereotactic implantation of 5 × 10^4 F98 cells in the […] striatum (n = 2).
Immediately after isolation, the brains were frozen by immersion in isopentane at −25 °C. Cryosections of 12 μm (Microm HM560 cryostat, Thermo Scientific, Schwerte, Germany) were mounted on microscopic glass slides, dried at room temperature, and stored at −25 °C. For the experiment, the slices were dried at room temperature under a stream of cold air before pre-incubation in PBS, pH 7.4, at room temperature for 15 min. […] Co-incubation with serial dilutions of RM273 (10^−10–10^−6 M) was performed to determine an inhibition curve. After 60 min, the incubation at room temperature was terminated by decanting and washing the slides by two consecutive incubations in ice-cold washing buffer (50 mM TRIS-HCl, pH 7.4 at 4 °C) for two min each, followed by dipping in ice-cold demineralized water for 5 sec and drying under a stream of cold air. In parallel, for subsequent quantification of the data obtained from the homologous competition experiment, defined volumes, and thus defined activities of the radioligand solution, were pipetted onto a microscopic glass slide (0.5–3 μL = 0.0355–0.213 kBq) and dried. Afterwards the tissue samples along with the standards were exposed to an ^18F-sensitive phosphor screen (ABC) for two hours. Image acquisition was performed using a phosphorimager (HD-CR 35; DÜRR NDT GmbH & Co. KG, Bietigheim-Bissingen, Germany). Analysis of the digitized images was performed by image analysis software (AIDA; Elysia-raytest GmbH, Straubenhardt, Germany).
Irregular regions of interest (ROI) were drawn on the standard spots and the different brain regions, which were confirmed by Nissl staining of the identical brain sections. Optical density measured in each ROI was expressed as quantum levels per unit area (QL/pixel) with a pixel size of 12.5 μm^2. From the calibration curve obtained from the standards by plotting QL vs. activity, the QL values of the ROIs were converted to activity values followed by conversion to chemical concentration of RM273 based on the molar activity of [^18F]RM273. […]

A short description of data set [1]: In vitro stability of the radioligand in saline, PBS and TRIS-HCl buffer. To be noted: 37 °C. Type of data set: physicochemical. The protocol:
The in vitro stability of [^18F]RM273 was investigated in saline, phosphate-buffered saline (PBS), and TRIS-HCl buffer (50 mM, pH 7.4) at 37 °C for 2 h, and the radioligand remained intact (90%, 94%, and 100%, respectively; saline for 1 h: 95%). The logD7.4 of [^18F]RM273 was experimentally determined by the shake-flask method as 1.78 ± 0.22 (n = 3), which is well within the range of 1–3.5 recommended for brain targeting compounds [43].
In vitro stability of [^18F]RM273 was determined in saline, phosphate-buffered saline (PBS), and TRIS (50 mM, pH 7.4) by incubation of approx. 5 MBq in 500 µL of each medium at 37 °C. Samples were taken after 30, 60, and 120 min and analyzed by analytical radio-HPLC with a gradient system as applied in Section 5.2.2.

Data set [2] deals with T2, σ2 receptors expressed in F98 cells (Rattus norvegicus, UniProt Q5U3Y7).
T2 construct: σ2 receptors expressed in F98 cells; endogenous in cells; host or cells: F98 rat glioma cells
T2 sequence (Q5U3Y7 1-176): T1 sequence (Q5U3Y7 1-176)
As to the kind of experiment: Homologous competition with membrane homogenates of F98 cells. Type of data set: binding.
Source text: as §1
Binding affinity experiments to assess the Ki values of test compounds towards rat σ2 receptors, human σ1 receptors, and rat VAChT were performed according to protocols previously published by our group. The same protocol was used to determine the KD and Bmax values of RM273 towards σ2 receptors expressed in F98 cells by homologous competition analyzing the displacement of [^18F]RM273 by RM273.
Figure 3 Determination of KD and Bmax values of [^18F]RM273. Homologous competition studies were performed by incubation of [^18F]RM273 at 5–7 different molar activities either with membrane homogenates of F98 cells (open squares) or cryosections of rat brain (n = 2) obtained about three weeks after stereotactic implantation of F98 cells (tumor region = filled circles; contralateral region = open circles). […] For the F98 cell homogenate, the maximum number of binding sites Bmax was calculated by division of the specific binding by the fractional occupancy fp (Bmax = 36,000 fmol/mg protein).

On to `COc1cc2c(cc1OC)CN(CCCCn1ccc3ccc([18F])nc31)CC2` [[^18F]RM273], for which the specific binding sites at σ2 receptor (F98 tumor region) is 9.4e-08 mol/L; at σ2 receptor (healthy tissue (contralateral side)), 3.2e-08 mol/L. Moreover, the Kd at σ2 receptor (contralateral striatum / contralateral brain) is 2.93 nM; on σ2 receptor (orthotopically grown F98 tumor region) it was 4.82 nM; in data set [2] (F98 cell membrane homogenate, homologous competition), 12 nM. The radioligand remained intact stood at 100% in data set [1] (TRIS-HCl buffer (50 mM, pH 7.4), 2 h); 94% in data set [1] (phosphate-buffered saline (PBS), 2 h); 95% in data set [1] (saline, 1 h); 90% in data set [1] (saline, 2 h). Further, the Bmax equivalent result in data set [2] (F98 cell homogenate, converted from fmol/mg protein) is “about 3600 fmol/mg tissue”. Besides, the Bmax in data set [2] (F98 cell membrane homogenate) is reported as 36,000 fmol/mg protein.

Broadly, the Kd is the free concentration of one partner at which half of the binding sites on the other are occupied at equilibrium, for simple one-to-one binding.
